Reference: ChEMBL document CHEMBL3351459, “Present status of quinoxaline motifs: excellent pathfinders in therapeutic medicine” (Eur J Med Chem, 2014)
Converted amounts (≈) assume the structure as drawn.

Assays:
[1] = test system: Mycobacterium tuberculosis; assay: Antimycobacterial activity against isoniazid-resistant Mycobacterium tuberculosis; format: functional
[2] = test system: Mycobacterium tuberculosis; assay: Antimycobacterial activity against rifampicin-resistant Mycobacterium tuberculosis; format: functional

Question: Which MIC [1] does the source give for `CC(=O)c1c(C)[n+]([O-])c2ccc(Cl)cc2[n+]1[O-]` here?
Answer: 1.56 µg/mL (≈ 6.17 µM)

Question: And the MIC [2]?
Answer: ≤ 0.39 µg/mL
